Measurements taken from US8093028B2, “Engineered glycosyltransferases with expanded substrate specificity” (Wisconsin Alumni Research Foundation, priority 2007, dated 2012).

Legend:
Format in all cases: biochemical
WT OleD = biological target: T1, WT OleD (Streptomyces antibioticus, UniProt Q53685, P55A/R82V/R83E/T84P); assay: Rate of glucoside formation with acceptors (RP-HPLC); settings: 200 μM acceptor, 1 mM UDPG
T1 construct: made in house; host or cells: E. coli BL21(DE3)pLysS, plasmid pET28/OleD
Procedure: (§1) Enzyme assays for the determination of glycosyl transfer rate to FIG. 1: 4, Table 1: 27-32 were carried out in a total volume of 500 μl 50 mM Tris-HCl (pH8.0) containing 5 mM MgCl2, 200 μM acceptor, 1 mM UDPG, and 50 μg pure enzyme. Aliquots (100 μl) were removed between 0 and 30 min, at which time product formation was still linear with respect to time, and quenched with 90 μl of an 8:1 mixture of ice-cold MeOH/HCl, and centrifuged at 14,000 rpm for 10 min. Supernatants were analyzed by analytical reverse-phase HPLC with a 250 mm×4.6 mm Gemini […] C18 column (Phenomenex, Torrance, Calif.) using a gradient of 10-90% CH3CN in 0.1% trifluoroacetic acid (TFA)/H2O in 20 min at 1 ml/min, with detection at 254 nm. HPLC peak areas were integrated, and the product concentration calculated as a percent of the total peak area. Product identity was confirmed by co-elution with a commercial standard when available and, in all cases, by LC-MS (FIG. 8).
(§2) Reaction conditions for assay of macrolide glycosylation were identical to that for FIG. 1: 1, except that typically, less enzyme was used (1-10 μg) and reactions were quenched with an equal volume of ice-cold MeOH. Centrifuged reaction mixtures were analyzed by analytical reverse-phase HPLC with a Gemini 5μ C18 column (Phenomenex) using a gradient of 0-90% CH3CN in 50 mM NH3COOH over 30 min at 1 ml/min. Products and acceptor macrolide were detected by evaporative light scattering detection (ELSD) using a drift tube temperature of 105° C. and a nitrogen flow of 2.5 ml/min. All products were characterized by APCI LC-MS on an Agilent 1100 Series LC/MSD quadrapole mass spectrometer connected to a UV detector. Quenched reaction mixtures were analyzed by reverse-phase HPLC with a 10 mm×4.6 mm Zorbax Extend 5μ C18 Analytical Guard Column (Agilent Technologies) using an isocratic gradient of 80% MeOH in 2 min at 1 ml/min, with detection at 254 nm.
(§3) Enzyme reactions were carried out in a total volume of 500 μl 50 mM Tris-HCl (pH8.0) containing 5 mM MgCl2, 200 μM acceptor, 1 mM UDPG, and 50 μg pure enzyme. Aliquots (100 μl) were removed between 0 and 30 min, and quenched with 90 μl of an 8:1 mixture of ice-cold MeOH/HCl for activity towards FIG. 1: 4, Table 1: 27-32, or with 90 μl of ice-cold MeOH for activity towards FIG. 1: 1, and the samples centrifuged at 14,000 rpm for 10 min.
(§4) For determination of activity to FIG. 1: 4, Table 1: 27-32, supernatants were analyzed by analytical reverse-phase HPLC with a Gemini 5μ C18 column (Phenomenex) using a gradient of 10-90% CH3CN in 0.1% trifluoroacetic acid (TFA)/H2O in 20 min, with detection at 254 nm. HPLC peak areas were integrated, and the product concentration calculated as a percent of the total peak area. All products were characterized by LC-MS. Mass spectra were obtained using electrospray ionization on an Agilent 1100 HPLC-MSD SL quadrapole mass spectrometer connected to a UV/Vis diode array detector. For LC-MS analysis, quenched reaction mixtures (see below) were analyzed by analytical reverse-phase HPLC with a 250 mm×4.6 mm Gemini 5μ C18 column (Phenomenex, Torrance, Calif.) using a gradient of 10-90% CH3CN in 0.1% formic acid/H2O in 20 min at 1 ml/min, with detection at 254 nm.
as §2, with “For determination” for “Reaction conditions for assay”, “activity toward” for “macrolide glycosylation were identical to that for”, “centrifuged” for “except that typically, less enzyme was used (1-10 μg) and reactions were quenched with an equal volume of ice-cold MeOH. Centrifuged”, “Compounds FIG. 1: 1” for “Products”, “3” for “acceptor macrolide”

OleD S132F [1] = biological target: T2, OleD S132F (Streptomyces antibioticus, UniProt Q53685, P55A/R82V/R83E/S132F/T84P); assay: as above; settings: for Rate of glucoside formation, S132F: 200 μM acceptor, 1 mM UDPG
T2 construct: made in house; host or cells: E. coli (site-directed mutant of pET28/OleD)
Procedure: as §1, §2, §3, §4
as §2, with “For determination” for “Reaction conditions for assay”, “activity toward” for “macrolide glycosylation were identical to that for”, “centrifuged” for “except that typically, less enzyme was used (1-10 μg) and reactions were quenched with an equal volume of ice-cold MeOH. Centrifuged”, “Compounds FIG. 1: 1” for “Products”, “3” for “acceptor macrolide”

OleD P67T [2] = biological target: T3, OleD P67T (Streptomyces antibioticus, UniProt Q53685, P55A/P67T/R82V/R83E/T84P); assay: as above; settings: 200 μM acceptor, 1 mM UDPG
T3 construct: made in house; host or cells: E. coli (site-directed mutant of pET28/OleD)
Procedure: as §1, §2, §3, §4
as §2, with “For determination” for “Reaction conditions for assay”, “activity toward” for “macrolide glycosylation were identical to that for”, “centrifuged” for “except that typically, less enzyme was used (1-10 μg) and reactions were quenched with an equal volume of ice-cold MeOH. Centrifuged”, “Compounds FIG. 1: 1” for “Products”, “3” for “acceptor macrolide”

OleD A242V [3] = biological target: T4, OleD A242V (Streptomyces antibioticus, UniProt Q53685, A242V/P55A/R82V/R83E/T84P); assay: as above; settings: 200 μM acceptor, 1 mM UDPG
T4 construct: made in house; host or cells: E. coli BL21(DE3)pLysS (error-prone PCR clone in pET28a)
Procedure: as §1, §2, §3, §4
as §2, with “For determination” for “Reaction conditions for assay”, “activity toward” for “macrolide glycosylation were identical to that for”, “centrifuged” for “except that typically, less enzyme was used (1-10 μg) and reactions were quenched with an equal volume of ice-cold MeOH. Centrifuged”, “Compounds FIG. 1: 1” for “Products”, “3” for “acceptor macrolide”

OleD P67T/S132F/A242V [4] = biological target: T5, OleD P67T/S132F/A242V (Streptomyces antibioticus, UniProt Q53685, A242V/P67T/S132F); assay: as above; settings: for Rate of glucoside formation, P67T/S132F/A242V: 200 μM acceptor, 1 mM UDPG; for Fold-improvement compared to WT OleD: rate of P67T/S132F/A242V versus WT
T5 construct: made in house; host or cells: E. coli (site-directed mutant of pET28/OleD)
Procedure: as §1, with “8). […]” for “8).”
as §3, §4
as §2, with “For determination” for “Reaction conditions for assay”, “activity toward” for “macrolide glycosylation were identical to that for”, “centrifuged” for “except that typically, less enzyme was used (1-10 μg) and reactions were quenched with an equal volume of ice-cold MeOH. Centrifuged”, “Compounds FIG. 1: 1” for “Products”, “3” for “acceptor macrolide”

OleD S132F [5] = biological target: T2, OleD S132F; settings: Table 3; 4-Me-umb (4) as acceptor, end point assay
Procedure: (§5) Reactions were carried out as described above with the following exceptions. The total volume was 50 μl and the acceptor FIG. 1: 4 was at 50 μM and the NDP-sugar at ˜500 μM. The NDP-sugars were used directly from RmlA-catalyzed reactions. […] Reactions were incubated at 25° C. for 3 h.
(§6) The total volume was 50 μl and the acceptor FIG. 1: 4 or FIG. 1: 1 was at 50 μM and the NDP-sugar at ˜500 μM. The NDP-sugars were used directly from RmlA-catalyzed reactions. […] Reactions were incubated at 25° C. for 3 h.
(§7) For activity toward FIG. 1: 4, aliquots (25 μl) were quenched with 25 μl of an 8:1 mixture of ice-cold MeOH/HCl, and centrifuged at 14,000 rpm for 10 min. […] HPLC peak areas were integrated, and the product concentration calculated as a percent of the total peak area. All products were characterized by LC-MS. Mass spectra were obtained using electrospray ionization on an Agilent 1100 HPLC-MSD SL quadrapole mass spectrometer connected to a UV/Vis diode array detector.

OleD P67T [6] = biological target: T3, OleD P67T; settings: Table 3; 4-Me-umb (4) as acceptor, end point assay
Procedure: as §5, §6, §7

OleD P67T/S132F/A242V [7] = biological target: T5, OleD P67T/S132F/A242V; settings: for Conversion rates (%), P67T/S132F/A242V: Table 3, 4-Me-umb (4) as acceptor, end point assay
Procedure: as §5, §6, §7

OleD A242V [8] = biological target: T4, OleD A242V; settings: Table 3; 4-Me-umb (4) as acceptor, end point assay
Procedure: as §5, §6, §7

Row | Molecule | Rate of glucoside formation, WT (WT OleD) | Rate of glucoside formation, WT (WT OleD; listed as Table 1: 28) | Rate of glucoside formation, S132F (OleD S132F [1]) | Rate of glucoside formation, P67T (OleD P67T [2]) | Rate of glucoside formation, A242V (OleD A242V [3]) | Rate of glucoside formation, P67T/S132F/A242V (OleD P67T/S132F/A242V [4]) | Fold-improvement compared to WT OleD (OleD P67T/S132F/A242V [4]; UDPG donor) | Fold-improvement compared to WT OleD (OleD P67T/S132F/A242V [4]; UDPG donor, listed as Table 1: 27) | Conversion rates (%), S132F (OleD S132F [5]) | Conversion rates (%), P67T (OleD P67T [6]) | Conversion Rate (%), P67T/S132F/A242V (OleD P67T/S132F/A242V [7]; Table 2, acceptor 4 at 50 μM, NDP-sugar ~500 μM, 25° C., 3 h) | Conversion rates (%), P67T/S132F/A242V (OleD P67T/S132F/A242V [7]) | Conversion rates (%), A242V (OleD A242V [8]) | activity, fold more than WT OleD (OleD S132F [1]; UDPG donor) | glucosylation rate, fold less than the WT enzyme (OleD P67T/S132F/A242V [4]; UDPG donor)
1 | O=C(O)c1cc2ccc(O)cc2oc1=O [7-hydroxycoumarin-3-carboxylic acid (28), 7-hydroxycoumarin-3-carboxylic acid] | 0.01 mmols/product formed/min/μg enzyme × 10^3 | essentially non-detectable substrates | 0.022 mmols/product formed/min/μg enzyme × 10^3 | 0.022 mmols/product formed/min/μg enzyme × 10^3 | 0.01 mmols/product formed/min/μg enzyme × 10^3 | 0.62 mmols/product formed/min/μg enzyme × 10^3 | 62 fold |  |  |  |  |  |  |  | 
2 | O=C(O)Cc1cc(=O)oc2cc(O)ccc12 [7-hydroxycoumarin-4-acetic acid (27), 7-hydroxycoumarin-4-acetic acid] | essentially non-detectable substrates |  | 0.08 mmols/product formed/min/μg enzyme × 10^3 | 0.22 mmols/product formed/min/μg enzyme × 10^3 | 0.16 mmols/product formed/min/μg enzyme × 10^3 | 3.6 mmols/product formed/min/μg enzyme × 10^3 | >180 fold | > 180 fold |  |  |  |  |  |  | 
3 | O=c1ccn([C@@H]2O[C@H](COP(=O)(O)OP(=O)(O)O[C@H]3OC[C@@H](O)[C@H](O)[C@H]3O)[C@@H](O)[C@H]2O)c(=O)[nH]1 [UDP-xylose (7), UDP-xylose] |  |  |  |  |  |  |  |  | 1.5% | 2% | 31% | 31% | 2% |  | 
4 | O=c1c(-c2ccc(O)cc2)coc2cc(O)ccc12 [daidzein (31), daidzein] | 4.2 mmols/product formed/min/μg enzyme × 10^3 |  | 5.5 mmols/product formed/min/μg enzyme × 10^3 | 16.0 mmols/product formed/min/μg enzyme × 10^3 | 8.5 mmols/product formed/min/μg enzyme × 10^3 | 24 mmols/product formed/min/μg enzyme × 10^3 | 5.7 fold |  |  |  |  |  |  |  | 
5 | O=c1c(-c2ccc(O)cc2)coc2cc(O)cc(O)c12 [genistein (32), genistein] | 3.4 mmols/product formed/min/μg enzyme × 10^3 |  | 8.8 mmols/product formed/min/μg enzyme × 10^3 | 28.8 mmols/product formed/min/μg enzyme × 10^3 | 14.1 mmols/product formed/min/μg enzyme × 10^3 | 26 mmols/product formed/min/μg enzyme × 10^3 | 7.7 fold |  |  |  |  |  |  |  | 
6 | O=c1c(O)c(-c2ccc(O)cc2)oc2cc(O)cc(O)c12 [kaempferol (30), kaempferol] | 13.2 mmols/product formed/min/μg enzyme × 10^3 |  | 23 mmols/product formed/min/μg enzyme × 10^3 | 99.9 mmols/product formed/min/μg enzyme × 10^3 | 15.3 mmols/product formed/min/μg enzyme × 10^3 | 28 mmols/product formed/min/μg enzyme × 10^3 | 2.1 fold |  |  |  |  |  |  |  | 
7 | CO[C@H]1C[C@H](O[C@H]2[C@H](C)[C@@H](O[C@@H]3O[C@H](C)C[C@H](N(C)C)[C@H]3O)[C@@H](C)C[C@@]3(CO3)C(=O)[C@H](C)[C@@H](O)[C@@H](C)[C@@H](C)OC(=O)[C@@H]2C)O[C@@H](C)[C@@H]1O [oleandomycin (1), oleandomycin] | 700 mmols/product formed/min/μg enzyme × 10^3 |  | 1487 mmols/product formed/min/μg enzyme × 10^3 | 20 mmols/product formed/min/μg enzyme × 10^3 | 70 mmols/product formed/min/μg enzyme × 10^3 | 13 mmols/product formed/min/μg enzyme × 10^3 | 0.02 fold |  |  |  |  |  |  | ~2 fold | ~54 fold
8 | UDP-2-amino-glc [UDP-2-amino-glc (19)] |  |  |  |  |  |  |  |  |  |  |  | 24% |  |  | 
